Reference: patent US11578074B2, “Nitrogenous heterocyclic compound, preparation method, intermediate, composition, and application” (SHANGHAI PHARMACEUTICALS HOLDING CO., LTD., priority 2017, dated 2023)

Columns and labels:
CYP2C9 = molecular target: T1, CYP2C9 (Homo sapiens, UniProt P11712); assay: Direct inhibition (DI) of CYP2C9 in human liver microsomes; format: in vitro ADME; conditions: probe Diclofenac, human liver microsomes 0.2 mg/mL, 10 μM compound, read-out: Direct inhibition (DI) 2C9 (Diclofenac)
T1 construct: A system of 100 μL human liver microsomes; from tissue; host or cells: human liver microsomes
Method in brief: (§1)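 Pooled human liver microsomes (0.2 mg/mL) with 1 mM NADPH and 10 μM test compound were incubated for 20 min with a mixed probe-substrate cocktail (midazolam 10 μM, testosterone 100 μM, dextromethorphan 10 μM, diclofenac 20 μM, phenacetin 100 μM, mephenytoin 100 μM). Relative enzyme activity came from metabolite formation versus DMSO control.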

ErbB2 kinase = molecular target: T2, ErbB2 kinase (Homo sapiens, UniProt P04626); assay: EGFR/ErbB2 enzymatic experiment (HTRF kinEASE-TK), ErbB2; format: biochemical; conditions: ErbB2 kinase 0.06 ng/μL, ATP 4 μM; read-out: Kinase IC50 (nM) in vitro ErbB2
T2 construct: The final concentration of ErbB2 kinase was 0.06 ng/μL

EGFR kinase = EGFR kinase (Homo sapiens, UniProt P00533); assay: EGFR/ErbB2 enzymatic experiment (HTRF kinEASE-TK), EGFR; format: biochemical; conditions: EGFR kinase 0.06 units/μL, ATP 1.65 μM; read-out: Kinase IC50 (nM) in vitro EGFR
[1] = system: BT-474 (human breast cancer cell); assay: In vitro proliferation inhibition assay of cell lines (CellTiter-Glo), BT-474; format: cell-based; conditions: BT-474 cells, 72 hours
Method in brief: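 Cells were exposed to nine compound concentrations in duplicate for 72 h at 37 °C and 5% CO2. Viability was read with CellTiter-Glo reagent after equilibration at room temperature.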

CYP1A2 = molecular target: T3, CYP1A2 (Homo sapiens, UniProt P05177); assay: Direct inhibition (DI) of CYP1A2 in human liver microsomes; format: in vitro ADME; conditions: probe Phenacetin, human liver microsomes 0.2 mg/mL, 10 μM compound, read-out: Direct inhibition (DI) 1A2 (Phenacetin)
T3 construct: A system of 100 μL human liver microsomes; from tissue; host or cells: human liver microsomes
T3 sequence (P05177 1-516): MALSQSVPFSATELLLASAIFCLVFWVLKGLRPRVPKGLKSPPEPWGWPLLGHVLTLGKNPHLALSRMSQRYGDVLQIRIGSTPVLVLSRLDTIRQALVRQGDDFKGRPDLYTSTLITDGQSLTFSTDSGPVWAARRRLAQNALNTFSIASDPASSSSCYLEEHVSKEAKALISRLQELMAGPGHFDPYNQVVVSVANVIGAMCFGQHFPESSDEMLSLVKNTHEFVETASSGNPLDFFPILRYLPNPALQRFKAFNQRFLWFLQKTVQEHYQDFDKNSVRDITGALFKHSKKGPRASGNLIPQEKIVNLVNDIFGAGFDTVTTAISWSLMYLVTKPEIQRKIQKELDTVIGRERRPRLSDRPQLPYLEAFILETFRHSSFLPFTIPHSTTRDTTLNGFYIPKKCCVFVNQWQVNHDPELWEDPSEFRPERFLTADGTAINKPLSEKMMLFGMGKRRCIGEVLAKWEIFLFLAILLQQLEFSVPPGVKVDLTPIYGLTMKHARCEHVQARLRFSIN
Method in brief: as §1

CYP2D6 = molecular target: T4, CYP2D6 (Homo sapiens, UniProt P10635); assay: Direct inhibition (DI) of CYP2D6 in human liver microsomes; format: in vitro ADME; conditions: probe Dextromethorphan, human liver microsomes 0.2 mg/mL, 10 μM compound, read-out: Direct inhibition (DI) 2D6 (Dextromethorphan)
T4 construct: A system of 100 μL human liver microsomes; from tissue; host or cells: human liver microsomes
Method in brief: as §1

T2 sequence (P04626 23-1255): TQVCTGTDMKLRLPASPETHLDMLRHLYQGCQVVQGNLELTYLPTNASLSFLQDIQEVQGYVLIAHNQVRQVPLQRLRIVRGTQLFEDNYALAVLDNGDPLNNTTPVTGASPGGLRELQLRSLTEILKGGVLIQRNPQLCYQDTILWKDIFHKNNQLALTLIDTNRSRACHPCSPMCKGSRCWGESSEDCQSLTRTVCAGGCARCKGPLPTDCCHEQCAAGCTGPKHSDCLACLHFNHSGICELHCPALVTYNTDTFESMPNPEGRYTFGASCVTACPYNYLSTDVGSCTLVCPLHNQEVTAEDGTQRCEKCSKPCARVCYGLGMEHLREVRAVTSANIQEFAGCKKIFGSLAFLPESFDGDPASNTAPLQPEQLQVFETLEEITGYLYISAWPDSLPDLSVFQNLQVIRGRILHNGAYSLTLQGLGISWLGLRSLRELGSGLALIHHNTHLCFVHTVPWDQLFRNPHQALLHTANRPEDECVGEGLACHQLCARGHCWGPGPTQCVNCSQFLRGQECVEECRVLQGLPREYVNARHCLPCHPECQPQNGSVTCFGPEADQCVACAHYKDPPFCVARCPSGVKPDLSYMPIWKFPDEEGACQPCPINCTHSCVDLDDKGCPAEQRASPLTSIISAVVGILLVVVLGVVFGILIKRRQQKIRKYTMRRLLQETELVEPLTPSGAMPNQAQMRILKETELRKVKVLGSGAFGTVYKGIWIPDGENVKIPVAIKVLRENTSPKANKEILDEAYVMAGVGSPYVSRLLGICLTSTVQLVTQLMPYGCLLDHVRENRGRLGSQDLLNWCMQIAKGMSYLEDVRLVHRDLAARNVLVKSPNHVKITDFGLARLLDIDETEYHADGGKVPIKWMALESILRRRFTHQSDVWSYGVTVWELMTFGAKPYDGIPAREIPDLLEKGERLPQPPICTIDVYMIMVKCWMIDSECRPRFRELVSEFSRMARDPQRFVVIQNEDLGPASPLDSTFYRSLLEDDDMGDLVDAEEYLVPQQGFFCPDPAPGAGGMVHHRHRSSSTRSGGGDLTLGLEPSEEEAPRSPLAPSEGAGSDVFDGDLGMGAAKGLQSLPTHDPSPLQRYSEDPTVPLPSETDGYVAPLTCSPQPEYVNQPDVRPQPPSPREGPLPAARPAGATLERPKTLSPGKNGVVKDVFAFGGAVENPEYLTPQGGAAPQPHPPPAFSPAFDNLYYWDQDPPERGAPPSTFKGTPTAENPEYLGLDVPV
Sequence of EGFR kinase (P00533 25-1210): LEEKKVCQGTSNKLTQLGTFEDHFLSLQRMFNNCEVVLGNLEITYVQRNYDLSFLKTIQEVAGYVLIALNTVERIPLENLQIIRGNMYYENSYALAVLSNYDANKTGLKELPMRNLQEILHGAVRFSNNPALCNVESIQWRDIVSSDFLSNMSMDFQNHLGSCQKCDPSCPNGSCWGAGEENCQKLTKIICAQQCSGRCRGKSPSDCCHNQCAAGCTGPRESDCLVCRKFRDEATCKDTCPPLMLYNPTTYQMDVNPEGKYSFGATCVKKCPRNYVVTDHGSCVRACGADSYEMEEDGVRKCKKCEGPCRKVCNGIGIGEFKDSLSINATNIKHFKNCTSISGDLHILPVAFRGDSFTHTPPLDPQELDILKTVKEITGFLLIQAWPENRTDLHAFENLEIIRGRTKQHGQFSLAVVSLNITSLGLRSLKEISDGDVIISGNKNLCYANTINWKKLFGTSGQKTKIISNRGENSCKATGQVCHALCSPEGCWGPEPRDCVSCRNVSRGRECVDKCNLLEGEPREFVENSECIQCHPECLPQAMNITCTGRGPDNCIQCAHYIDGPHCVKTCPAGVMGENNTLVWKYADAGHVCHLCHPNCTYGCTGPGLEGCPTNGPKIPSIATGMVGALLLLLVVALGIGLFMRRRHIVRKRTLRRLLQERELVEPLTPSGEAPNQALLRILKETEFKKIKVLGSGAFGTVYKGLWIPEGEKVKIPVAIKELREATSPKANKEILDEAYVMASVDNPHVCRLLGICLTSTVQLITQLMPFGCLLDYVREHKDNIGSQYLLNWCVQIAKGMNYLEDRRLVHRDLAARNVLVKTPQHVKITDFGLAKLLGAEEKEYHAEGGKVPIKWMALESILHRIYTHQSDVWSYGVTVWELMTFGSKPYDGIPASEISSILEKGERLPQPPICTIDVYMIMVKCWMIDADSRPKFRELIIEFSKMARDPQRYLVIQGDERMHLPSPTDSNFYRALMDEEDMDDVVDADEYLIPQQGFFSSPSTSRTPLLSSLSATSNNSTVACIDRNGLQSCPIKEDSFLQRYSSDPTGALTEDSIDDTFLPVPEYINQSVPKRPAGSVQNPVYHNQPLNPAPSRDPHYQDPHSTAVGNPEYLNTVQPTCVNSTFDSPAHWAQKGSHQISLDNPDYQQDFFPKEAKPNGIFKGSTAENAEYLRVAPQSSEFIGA
T1 sequence (P11712 whole entry): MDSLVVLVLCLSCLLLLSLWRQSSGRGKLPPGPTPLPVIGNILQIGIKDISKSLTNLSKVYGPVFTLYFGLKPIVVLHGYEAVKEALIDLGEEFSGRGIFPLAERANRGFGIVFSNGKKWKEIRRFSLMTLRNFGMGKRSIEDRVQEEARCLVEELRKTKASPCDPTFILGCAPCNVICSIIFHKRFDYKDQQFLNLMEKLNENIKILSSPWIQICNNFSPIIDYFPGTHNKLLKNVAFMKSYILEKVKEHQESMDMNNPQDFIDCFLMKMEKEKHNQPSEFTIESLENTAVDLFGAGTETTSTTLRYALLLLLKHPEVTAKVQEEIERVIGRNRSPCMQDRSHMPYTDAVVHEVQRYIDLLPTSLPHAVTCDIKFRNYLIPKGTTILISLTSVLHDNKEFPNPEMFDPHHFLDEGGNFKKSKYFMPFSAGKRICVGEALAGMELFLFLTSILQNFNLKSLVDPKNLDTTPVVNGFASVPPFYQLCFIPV
T4 sequence (P10635 whole entry): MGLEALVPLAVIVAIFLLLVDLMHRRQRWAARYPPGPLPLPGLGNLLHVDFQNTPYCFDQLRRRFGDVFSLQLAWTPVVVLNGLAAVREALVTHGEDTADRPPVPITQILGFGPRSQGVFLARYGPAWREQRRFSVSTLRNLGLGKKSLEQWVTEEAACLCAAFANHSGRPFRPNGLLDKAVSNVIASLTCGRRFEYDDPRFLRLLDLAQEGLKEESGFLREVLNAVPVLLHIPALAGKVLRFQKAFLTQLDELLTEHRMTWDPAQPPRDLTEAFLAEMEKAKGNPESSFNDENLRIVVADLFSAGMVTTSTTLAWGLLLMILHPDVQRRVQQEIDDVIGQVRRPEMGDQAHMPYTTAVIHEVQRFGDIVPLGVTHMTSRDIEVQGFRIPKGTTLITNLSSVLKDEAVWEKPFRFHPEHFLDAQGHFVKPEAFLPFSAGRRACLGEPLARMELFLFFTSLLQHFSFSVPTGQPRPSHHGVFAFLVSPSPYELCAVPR

Structure (SMILES) | inhibition at 20 min, 10 µM (CYP2C9) | IC50 (ErbB2 kinase) | IC50 (EGFR kinase) | IC50 [1] | inhibition at 20 min, 10 µM (CYP1A2) | inhibition at 20 min, 10 µM (CYP2D6)
CCOc1cc2ncnc(Nc3ccc(Oc4ccn5ncnc5c4)c(C)c3)c2cc1NC(=O)/C=C/[C@H]1CCCN1C [Final product of Embodiment 22, (R,E)-N-(4-((4-([1,2,4]triazolo[1,5-a]pyridin-7-yloxy)-3-methylphenyl)amino)-7-ethoxyquinazolin-6-yl)-3-(1-methylpyrrolidin-2-yl)acrylamide] | 10% | 0.37 nM | 0.8 nM | 1 nM | 14% | 48%
CCOc1cc2ncnc(Nc3ccc(Oc4ccn5ncnc5c4)c(C)c3)c2cc1NC(=O)/C(F)=C/[C@H]1CCCN1C [Final product of Embodiment 45] | < 0% | 1.8 nM | 10.5 nM | 2.1 nM | 8% | 39%
